Laboratory results: US9464064B2, “HCV helicase inhibitors and methods of use thereof” (University of Kansas, priority 2011, dated 2016)

Target: T1, HCV NS3 helicase NS3h_1b(con1) (Hepatitis C virus genotype 1b, UniProt Q9WMX2)
T1 construct: truncated C-terminally His-tagged NS3 proteins lacking the N-terminal protease, called NS3h; His-tag (C); made in house
Assay: MBHA screen of NCI mechanistic set library at 20 μM (percent inhibition, compound interference)
Type: biochemical
Conditions: compounds at 20 μM; for Inh. (%) (Inhibition): calculated from Equation 1
How it was run: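 Molecular beacon-based DNA unwinding assay; compounds screened at 20 μM in triplicate, with DMSO-only negative and 500 nM dT20 positive controls. Fluorescence (ex 643/em 670 nm) was read before and 30 min after adding ATP to 1 mM. Percent inhibition came from the change relative to DMSO controls; interference from pre-ATP fluorescence versus DMSO controls.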

[1] = MBHA with DNA substrate, assay interference calculated with Equation 2
[2] = assay interference calculated with Equation 2 (fluorescence vs DMSO-only controls before ATP)

T1 sequence (Q9WMX2 1192-1657): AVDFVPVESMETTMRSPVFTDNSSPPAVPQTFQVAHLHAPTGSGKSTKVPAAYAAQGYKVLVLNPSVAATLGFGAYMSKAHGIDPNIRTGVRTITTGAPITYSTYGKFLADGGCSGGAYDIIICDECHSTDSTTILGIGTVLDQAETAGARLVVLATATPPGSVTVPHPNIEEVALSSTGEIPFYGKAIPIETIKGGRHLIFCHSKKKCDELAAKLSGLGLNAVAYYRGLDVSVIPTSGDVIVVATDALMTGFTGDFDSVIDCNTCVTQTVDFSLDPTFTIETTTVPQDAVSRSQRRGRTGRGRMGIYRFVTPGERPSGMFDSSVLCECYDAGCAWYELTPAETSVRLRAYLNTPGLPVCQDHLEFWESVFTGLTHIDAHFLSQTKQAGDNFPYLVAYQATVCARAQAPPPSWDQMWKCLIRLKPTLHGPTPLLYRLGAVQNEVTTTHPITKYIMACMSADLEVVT

Row | SMILES | Int.* (Ratio) (Interference) [1] | Inh. (%) (Inhibition) (MBHA with DNA substrate) | Inh. (%) (Inhibition) (MBHA with a DNA substrate) | Int.* (Ratio) (Interference) [2] | Inh. (%) (Inhibition) (MBHA with DNA substrate, 20 µM)
1 | O/N=C(\CC(O)(C(F)(F)F)C(F)(F)F)c1cccc(Cl)c1 [Compound 664329] | 1.01 Ratio | −14.5% | – | – | –
2 | Cc1ccc2c(ccc(C=Cc3ccc(O)c4ncccc34)[n+]2C)c1 [Compound 85700] | 0.46 Ratio | 29.7% | – | – | –
3 | CNC(=S)N/N=C/c1ccc([N+](=O)[O-])s1 [Compound 169543] | – | – | 9.6% | 1.02 Ratio | –
4 | Oc1ccc(/C=N/NC(=S)Nc2cccnc2)nc1 [Compound 185065] | – | – | −26.6% | 1.11 Ratio | –
5 | COc1ccccc1/C=C1\Sc2scc(-c3cccc([N+](=O)[O-])c3)[n+]2C1=O [Compound 657446] | – | – | −21.5% | 1.00 Ratio | –
6 | COc1cccc2c1cc([N+](=O)[O-])c1c(C(=O)O)cc3c(c12)OCO3 [Compound 11926] | 1.14 Ratio | −12.8% | – | – | –
7 | COc1cc2c(c(OC)c1OC)-c1c(cc3c(c1OC)OCO3)CC(C)C(C)(O)C2OC(=O)c1ccccc1 (stereo not drawn) [Compound 330516] | 0.92 Ratio | 13.8% | – | – | –
8 | O=C(CC(O)(C(F)(F)F)C(F)(F)Cl)CC(O)(C(F)(F)F)C(F)(F)Cl (stereo not drawn) [Compound 659174] | – | – | 8.7% | 0.92 Ratio | –
9 | O=C1C=C(Nc2ccccc2C(=O)CC(=O)C(=O)Nc2ccc(Cl)cc2)c2ccccc2C1=O [Compound 641253] | – | – | −34.2% | 0.95 Ratio | –
10 | Nc1nc(SCCc2ccccc2)c2[nH]cnc2n1 [Compound 35866] | 0.93 Ratio | 15.3% | – | – | –
11 | CO[C@@H]1[C@@H](OC(=O)c2ccc(C)[nH]2)[C@@H](O)[C@H](Oc2ccc3c(O)c(NC(=O)c4c[nH]c(C(=O)Nc5c(O)c6ccc(O[C@@H]7OC(C)(C)[C@H](OC)[C@@H](OC(=O)c8ccc(C)[nH]8)[C@H]7O)c(C)c6oc5=O)c4C)c(=O)oc3c2C)OC1(C)C [Compound 107412] | 0.83 Ratio | 0.0% | – | – | –
12 | COc1ccc(/C=C2\N=C(c3ccccc3)OC2=O)c(OCc2ccccc2)c1 [Compound 262665] | – | – | −3.4% | 0.95 Ratio | –
13 | CCCCOc1ccc(NC(N)=Nc2ccc(Cl)cc2)cc1 [Compound 78365] | 0.98 Ratio | 4.7% | – | – | –
14 | O=C(C[n+]1ccc2ccccc2c1)c1ccc2ccc3ccccc3c2c1 [Compound 35489] | 1.04 Ratio | 18.7% | – | – | –
15 | OC(CBr)C(O)C(O)C(O)CBr (stereo not drawn) [Compound 616232] | 1.02 Ratio | −0.6% | – | – | –
16 | Cc1cc(O)c(/C=N/C(N)=S)c(=O)o1 [Compound 657449] | – | – | −25.4% | 1.00 Ratio | –
17 | O=C1c2ccccc2C(=O)c2c(O)c(O)cc(O)c21 [Compound 10447] | 1.06 Ratio | 5.6% | – | – | –
18 | COc1cc2c(c3oc4cccc(O)c4c(=O)c13)[C@@H]1C=CO[C@@H]1O2 [Compound 204985] | 1.05 Ratio | 5.4% | – | – | –
19 | Cl.Cl.Nc1ccc(OCCCc2c(-c3ccccc3)nc(N)[nH]c2=O)cc1 [Compound 100856] | 0.98 Ratio | −11.6% | – | – | –
20 | CC12CCC(O)CC1CCC1C2CCC2(C)C(C3=CC(=O)OC3)CCC12O (stereo not drawn) [Compound 407806] | 1.00 Ratio | −11.1% | – | – | –
21 | [Mo] [Compound 622124] | 1.11 Ratio | – | – | – | 54.2%
22 | CC1=NN(C(=O)c2ccncc2)C(=O)C1N=Nc1ccc(F)cc1 (stereo not drawn) [Compound 621094] | 0.98 Ratio | −2.8% | – | – | –
23 | COC1C(C)OC(OC2CC(C)(O)Cc3cc4c(c(O)c32)C(=O)c2c(O)cc3c(c2C4=O)OC2OC3(C)C(O)C(N(C)C)C2O)C(OC)C1(C)OC (stereo not drawn) [Compound 265450] | 0.54 Ratio | 38.9% | – | – | –
24 | CCCC(=O)OCC1OC(n2ccc(N)nc2=O)C(OC(=O)CCC)C1OC(=O)CCC (stereo not drawn) [Compound 138429] | – | – | 10.9% | 1.09 Ratio | –
25 | CCCCCCCCCCCCCCCCOCC(O)CO (stereo not drawn) [Compound 59269] | 0.96 Ratio | −9.7% | – | – | –
26 | C[C@@H]1CC[C@H]2C(C)(C)[C@H]3C[C@@]12CC[C@@]3(C)O [Compound 403883] | – | – | −4.0% | 0.93 Ratio | –
27 | CCCCCn1cc2c3c(cccc31)C1C=C(C)CN(C)[C@@H]1C2.Cc1ccc(C(=O)OC(C(=O)O)C(OC(=O)c2ccc(C)cc2)C(=O)O)cc1 (stereo not drawn) [Compound 600681] | 0.95 Ratio | −19.1% | – | – | –

Row | SMILES | Int.* (Ratio) (Interference) [1] | Inh. (%) (Inhibition) (MBHA with DNA substrate) | Inh. (%) (Inhibition) (MBHA with a DNA substrate) | Int.* (Ratio) (Interference) [2] | Inh. (%) (Inhibition) (MBHA with DNA substrate, 20 µM)
28 | CCOC(=O)C(C)NC(=O)N(C)C12CC3CC(CC(C3)C1)C2 (stereo not drawn) [Compound 208913] | 1.10 Ratio | 0.9% | – | – | –
29 | Oc1cc2c3c(c1)c1cc4c(cc1c[n+]3CC2)OCO4.[Cl-] [Compound 338259] | 0.93 Ratio | 45.5% | – | – | –
30 | NC(=O)C#CC(N)=O [Compound 65381] | 0.96 Ratio | 14.1% | – | – | –
31 | Cc1ccc(S(=O)(=O)N2CCSCCSCCSCCSCC2)cc1 [Compound 650792] | 0.86 Ratio | −1.2% | – | – | –
32 | CON(C)C(=O)C1CCCO1 (stereo not drawn) [Compound 695218] | 0.99 Ratio | 13.3% | – | – | –
33 | COC(=O)C[S+]([O-])c1ccccc1 (stereo not drawn) [Compound 620050] | – | – | −3.3% | 0.96 Ratio | –
34 | CN(N=O)C(=O)N[C@@H]1[C@@H](O)[C@H](O)[C@@H](CO)O[C@@H]1O [Compound 85998] | 1.10 Ratio | −19.0% | – | – | –
35 | CCNC(=O)OCc1c(COC(=O)NCC)c(-c2ccc(Cl)c(Cl)c2)n2c1CCC2 [Compound 267700] | – | – | −24.0% | 1.04 Ratio | –
36 | COc1ccc(OC)c(-c2cc(=O)c3c(OC)c(OC)c(OC)c(OC)c3o2)c1 [Compound 71300] | 1.12 Ratio | 2.2% | – | – | –
37 | COc1ccccc1[S+]([O-])Nc1ccccc1 (stereo not drawn) [Compound 676561] | 0.96 Ratio | 17.1% | – | – | –
38 | O=C(c1ccccc1)C1OC12C(=O)Nc1c(Cl)cc(Cl)cc12 (stereo not drawn) [Compound 635306] | – | – | −6.8% | 0.96 Ratio | –
39 | O=C(CC1(O)C(=O)Nc2c(Cl)cc(Cl)cc21)c1ccc([N+](=O)[O-])cc1 (stereo not drawn) [Compound 635326] | 1.11 Ratio | 5.9% | – | – | –
40 | O=S(=O)(c1cccc(N=C=S)c1)c1cccc(N=C=S)c1 [Compound 140911] | 0.99 Ratio | 3.1% | – | – | –
41 | CC(C)(O)CCC(O)C(C)(O)C1CCC2(O)C3=CC(=O)C4(O)CC(O)C(O)CC4(C)C3CCC12C.CC(C)(O)CCC(O)C(C)(O)C1CCC2(O)C3=CC(=O)C4CC(O)C(O)CC4(C)C3CCC12C (stereo not drawn) [Compound 115493] | – | – | 7.3% | 0.94 Ratio | –
42 | Cc1ccccc1NC(=O)C(=O)C(c1cnc2ccc([N+](=O)[O-])cc2n1)[N+](=O)[O-] (stereo not drawn) [Compound 644735] | 0.94 Ratio | 17.3% | – | – | –
43 | CCOc1ccc(C(C)c2cc3c(cc2OC)OCO3)cc1 (stereo not drawn) [Compound 353648] | 0.94 Ratio | 1.7% | – | – | –
44 | O=C1/C(=C\c2ccccc2)CN(C(=O)/C=C/c2ccccc2)C/C1=C\c1ccccc1 [Compound 638634] | – | – | −20.4% | 0.86 Ratio | –
45 | Cl.NC(=O)c1cn(C2OC(CO)C(O)C2O)c2ncnc(N)c12 (stereo not drawn) [Compound 143648] | – | – | −4.1% | 0.99 Ratio | –
46 | Cc1c2ccc3ccccc3c2c[n+]2ccccc12.[Cl-] [Compound 28002] | 1.08 Ratio | 27.1% | – | – | –
47 | Cc1c2cnccc2c(C)c2c1c1ccccc1n2CCOC(=O)c1ccccc1 [Compound 163443] | 0.88 Ratio | −7.6% | – | – | –
48 | COc1cc([C@@H]2c3cc4c(c(O)c3C[C@H]3COC(=O)[C@@H]32)OCO4)cc(OC)c1OC [Compound 24819] | 1.12 Ratio | −0.3% | – | – | –
49 | Nc1nc(SCc2ccccc2Cl)c2[nH]cnc2n1 [Compound 36826] | 0.98 Ratio | 3.4% | – | – | –
50 | CNC(=O)ON(C(C)=O)C(=O)NC [Compound 253272] | 0.97 Ratio | 5.5% | – | – | –
51 | O=[N+]([O-])c1cccc2nc3ccccc3c(NCCCNc3c4ccccc4nc4cccc([N+](=O)[O-])c34)c12 [Compound 690634] | 0.82 Ratio | −10.3% | – | – | –
52 | Cc1c2c(cc3c1[nH]c1ccccc13)C=NCC2 [Compound 86100] | 1.00 Ratio | 18.6% | – | – | –
53 | OCCNCN(CNCCO)c1nc(N(CNCCO)CNCCO)nc(N(CNCCO)CNCCO)n1 [Compound 653000] | 0.97 Ratio | 1.2% | – | – | –
54 | C[C@H](CN1CC(=O)NC(=O)C1)N1CC(=O)NC(=O)C1 [Compound 169779] | 1.12 Ratio | −9.4% | – | – | –
